From ChEMBL document CHEMBL1201862, “PubChem BioAssay data set” (2004) come the findings set out here.

Some test systems named below: COLO 205; SK-MEL-5; MDA-MB-435; ACHN; NCI-H522; MOLT-4; SNB-75; SK-OV-3; T47D; RPMI-8226; K562; SF-295; PC-3; MCF7; HCT-116; EKVX; CCRF-CEM; NCI-H23; HCT-15.
Assay in all cases: growth of human tumour cells (NCI), 48 h

Several values for one entry are separate records, joined by “and”; a condition that tells them apart may be missing. Equal entries are not always repeated.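 Tested at 5 concentrations; 48 h exposure; 96-well plates; endpoints linearly interpolated, else capped at highest concentration. Abbreviation: GI50, concentration required for 50% inhibition of growth.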 Activity calls are given as the source filed them. Rule as the data show it: active = GI50 up to about 1.1 µM and inactive = higher.

For the compound `CCCN(CCC)C(=O)c1c(Cl)c2cccnc2n2c(C)cnc12`, the GI50 in the assay with COLO 205 was 49.5 µM (inactive); with SK-MEL-5, 37.8 µM (inactive); with MDA-MB-435, 27.2 µM (inactive); in the assay with ACHN it was > 100 µM (inactive); in the assay with NCI-H522 it was > 100 µM (inactive); in the assay with MOLT-4, 33.3 µM (inactive). The GI50 in the assay on SNB-75 was 62.7 µM (inactive); in the assay with SK-OV-3, 58.9 µM (inactive); in the assay on T47D, 11.7 µM (inactive); in the assay with RPMI-8226, 39.5 µM (inactive); in the assay on K562, 26.3 µM (inactive); with SF-295, > 100 µM (inactive). Besides, the GI50 in the assay on PC-3 is 23.9 µM (inactive); in the assay with MCF7 it was 47.9 µM (inactive); with HCT-116, 48.3 µM (inactive); with EKVX, > 100 µM (inactive); in the assay with CCRF-CEM, 51.8 µM (inactive); in the assay on NCI-H23, 90.2 µM (inactive).

`CC1(C)CC[C@]2(C(=O)O)CC[C@]3(C)C(=CC[C@@H]4[C@@]5(C)C[C@H](O)[C@H](O)[C@@](C)(CO)C5=CC[C@]43C)[C@@H]2C1`: the GI50 in the assay with COLO 205 is 22.5 µM (inactive); in the assay on SK-MEL-5, > 100 µM (inactive); with MDA-MB-435, > 100 µM (inactive); in the assay with ACHN, 34.8 µM (inactive); in the assay with NCI-H522 it was 20.2 µM (inactive); in the assay on MOLT-4, 35.6 µM (inactive). Further, the GI50 was 32.1 µM (inactive) in the assay with SNB-75; > 100 µM (inactive) with SK-OV-3; 35.8 µM (inactive) with T47D; 50.5 µM (inactive) with RPMI-8226; 50 µM (inactive) with K562; 25.8 µM (inactive) with SF-295. In addition, the GI50 in the assay with PC-3 is 67.9 µM (inactive); in the assay on MCF7, 46.7 µM (inactive); in the assay on HCT-15, 40.7 µM; in the assay with HCT-116, 32.5 µM (inactive); in the assay on EKVX, 53.2 µM (inactive); in the assay on CCRF-CEM, > 100 µM (inactive). The GI50 in the assay on NCI-H23 was 46.8 µM (inactive).

Take `COC(=O)C1=COC(C)C2CN3CCc4c([nH]c5cc(OC)c(OC)cc45)C3CC12` (stereo not drawn): the GI50 was 34.9 µM (inactive) and 29.9 µM (inactive) in the assay with COLO 205; 50.4 µM (inactive) and 36.8 µM (inactive) in the assay with SK-MEL-5; > 100 µM (inactive) and 72.6 µM (inactive) with MDA-MB-435; 36.3 µM (inactive) and 31.3 µM (inactive) with ACHN; 35.5 µM (inactive) and 28.6 µM (inactive) with MOLT-4; > 100 µM (inactive) in the assay on SK-OV-3. The GI50 is 40.6 µM (inactive) and 34.6 µM (inactive) with T47D; 27.9 µM (inactive) with RPMI-8226; 38.4 µM (inactive) and 37.8 µM (inactive) with K562; 59.4 µM (inactive) and 56.1 µM (inactive) with SF-295; 64.9 µM (inactive) and 37 µM (inactive) in the assay on PC-3; 43.8 µM and 25.1 µM in the assay on HCT-15. The GI50 with EKVX was 54.6 µM (inactive) and 72.8 µM (inactive); in the assay on NCI-H23 it was 70.5 µM (inactive) and 37.6 µM (inactive).

As for `CC(C)(C)N1CC2(CCCCC2)C1=O`, the GI50 in the assay with COLO 205, in the assay on SK-MEL-5, in the assay on ACHN, in the assay with NCI-H522, in the assay on MOLT-4 and with SNB-75 was > 100 µM (inactive) throughout. Further, the GI50 was > 100 µM (inactive) with SK-OV-3; > 100 µM (inactive) in the assay with RPMI-8226; > 100 µM (inactive) with K562; > 100 µM (inactive) in the assay on SF-295; more than 100 µM with HCT-15; > 100 µM (inactive) in the assay on HCT-116. For the same compound, the GI50 with EKVX, in the assay with CCRF-CEM and in the assay with NCI-H23 was > 100 µM (inactive) each time.

For the compound `COc1cc(C2C(Cl)C(=O)N2NC(=O)c2ccc(N)cc2)cc(Br)c1O` (stereo not drawn), the GI50 in the assay with COLO 205 was 18.7 µM (inactive); with SK-MEL-5, 17.9 µM (inactive); in the assay with ACHN, 19.2 µM (inactive); in the assay on NCI-H522 it was 1.92 µM (inactive); with MOLT-4, 4.23 µM (inactive); in the assay with SNB-75, 17.2 µM (inactive). Also, the GI50 in the assay on SK-OV-3 was 28.5 µM (inactive); in the assay with RPMI-8226, 24.4 µM (inactive); with K562, 10.2 µM (inactive); in the assay on SF-295, 14.6 µM (inactive); in the assay on HCT-15, 15 µM; in the assay with HCT-116, 10.4 µM (inactive). Besides, the GI50 in the assay on EKVX was 13.2 µM (inactive); in the assay with CCRF-CEM it was 2.92 µM (inactive); with NCI-H23 it was 16.4 µM (inactive).

On to `C=C1C(=O)O[C@H](c2ccoc2)C[C@@H]1[C@@]1(C)CCCC2(C)C(=O)OCC21` (stereo partly drawn), for which the GI50 with COLO 205, with SK-MEL-5, in the assay on ACHN, in the assay with NCI-H522, in the assay on MOLT-4 and in the assay on SNB-75 was > 100 µM (inactive) each time. The GI50 in the assay on SK-OV-3 is > 100 µM (inactive); with RPMI-8226, > 100 µM (inactive); with K562, > 100 µM (inactive); with SF-295, > 100 µM (inactive); with HCT-15, more than 100 µM; in the assay with HCT-116, > 100 µM (inactive). Besides, the GI50 in the assay with EKVX, with CCRF-CEM and in the assay on NCI-H23 was > 100 µM (inactive) in each case.

On to `COc1c2c(cc3nc4ccccc4nc13)CC[C@H](NC(C)=O)c1cc(=O)c(SC)ccc1-2`, for which the GI50 was 0.283 µM (active) in the assay with COLO 205; 0.412 µM (active) in the assay with SK-MEL-5; 0.132 µM (active) with MDA-MB-435; 4.15 µM (inactive) with ACHN; 0.275 µM (active) in the assay on NCI-H522; 0.555 µM (active) in the assay with MOLT-4. Moreover, the GI50 was 5.28 µM (inactive) with SK-OV-3; 0.538 µM (active) with RPMI-8226; 0.29 µM (active) in the assay with K562; 1.17 µM (inactive) with SF-295; 0.614 µM (active) in the assay on PC-3; 0.327 µM (active) with MCF7. Besides, the GI50 is 2.84 µM in the assay on HCT-15; 0.46 µM (active) in the assay on HCT-116; 1.01 µM (active) with EKVX; 0.532 µM (active) in the assay with CCRF-CEM; 0.238 µM (active) with NCI-H23.

In the case of `Cn1c2c(c3ccccc31)CCN(CCCCN1CCc3c(n(C)c4ccccc34)C1=O)C2`, the GI50 in the assay with COLO 205 was > 100 µM (inactive); in the assay with SK-MEL-5, > 100 µM (inactive); in the assay with ACHN, > 100 µM (inactive); with NCI-H522 it was > 100 µM (inactive); in the assay with MOLT-4, > 100 µM (inactive); in the assay on SNB-75, 88.1 µM (inactive). Besides, the GI50 is 92.7 µM (inactive) in the assay on SK-OV-3; > 100 µM (inactive) in the assay on RPMI-8226; > 100 µM (inactive) in the assay with K562; > 100 µM (inactive) in the assay with SF-295; more than 100 µM with HCT-15; > 100 µM (inactive) in the assay with HCT-116. The GI50 in the assay with EKVX, in the assay on CCRF-CEM and in the assay on NCI-H23 was > 100 µM (inactive) throughout.

Turning to `CC(=O)O[C@H]1CC[C@@]2(C)C(CC[C@]3(C)C2CC[C@]2(C)Oc4c(C)cc(O)cc4C[C@@H]23)C1(C)C` (stereo partly drawn), the GI50 is 14.5 µM (inactive) in the assay on COLO 205; 5.87 µM (inactive) in the assay with SK-MEL-5; 5.46 µM (inactive) in the assay with ACHN; 5.46 µM (inactive) in the assay with NCI-H522; 2.84 µM (inactive) in the assay with MOLT-4; 2.96 µM (inactive) in the assay with SNB-75. In addition, the GI50 is 7.08 µM (inactive) in the assay on SK-OV-3; 2.5 µM (inactive) with RPMI-8226; 3.96 µM (inactive) in the assay with K562; 2.17 µM (inactive) in the assay on SF-295; 3.66 µM with HCT-15; 5.27 µM (inactive) in the assay with HCT-116. For the same compound, the values for the GI50 in the assay on EKVX, with CCRF-CEM and in the assay on NCI-H23 were 19.5 µM (inactive), 3.79 µM (inactive) and 6.56 µM (inactive), respectively.
